# What was measured:
# Assay in all cases: Bacterial growth minimal inhibitory concentration (broth microdilution, CLSI M7-A7)
# Type in all cases: cell-based
# [1] = test system: Enterococcus faecium A949; conditions: multiply-resistant strain (in particular quinolone-resistant); for MIC: Enterococcus faecium, A949, cation-adjusted Mueller-Hinton Broth, read-out: MIC for E. faecium A949
# Method: (§1) Minimal Inhibitory Concentrations (MICs; mg/L) were determined in cation-adjusted Mueller-Hinton Broth by a microdilution method following the description given in “Methods for Dilution Antimicrobial Susceptibility Tests for Bacteria that Grow Aerobically”, Approved standard, 7th ed., Clinical and Laboratory Standards Institute (CLSI) Document M7-A7, Wayne, Pa., USA (2006).
# (§2) All Example compounds were tested against several Gram positive and Gram negative bacteria. […] Staphylococcus aureus A798, Enterococcus faecium A949 and Acinetobacter baumannii T6474 are multiply-resistant strains (in particular quinolone-resistant), while Moraxella catarrhalis A894 is a quinolone-sensitive strain and Staphylococcus aureus ATCC29213 is a methicillin-sensitive and quinolone-sensitive strain.
# [2] = test system: Moraxella catarrhalis A894; conditions: quinolone-sensitive strain; for MIC: Moraxella catarrhalis, A894, cation-adjusted Mueller-Hinton Broth
# Method: as §1, §2
# [3] = test system: Staphylococcus aureus A798; conditions: multiply-resistant strain (in particular quinolone-resistant); for MIC: Staphylococcus aureus, A798, cation-adjusted Mueller-Hinton Broth, read-out: MIC for S. aureus A798
# Method: as §1, §2
# [4] = test system: Acinetobacter baumannii T6474; conditions: multiply-resistant strain (in particular quinolone-resistant); for MIC: Acinetobacter baumannii, T6474, cation-adjusted Mueller-Hinton Broth
# Method: as §1, §2
# [5] = test system: Staphylococcus aureus ATCC29213; conditions: methicillin-sensitive and quinolone-sensitive strain; for MIC: Staphylococcus aureus, ATCC29213, cation-adjusted Mueller-Hinton Broth, read-out: MIC for S. aureus ATCC29213
# Method: as §1, §2
# [6] = cation-adjusted Mueller-Hinton Broth
SMILES,MIC [1] [µg/mL],MIC [2] [µg/mL],MIC [3] [µg/mL],MIC [4] [µg/mL],MIC [5] [µg/mL],"MIC for E. faecium A949 [1, 6] [µg/mL]","MIC for M. catarrhalis A894 [2, 6] [µg/mL]","MIC for S. aureus A798 [3, 6] [µg/mL]","MIC for A. baumannii T6474 [4, 6] [µg/mL]","MIC for S. aureus ATCC29213 [5, 6] [µg/mL]"
"COc1cc(C#N)cc(-c2cccc(CNCC[C@@H]3CN(c4ccc5c(c4)NC(=O)CS5)C(=O)O3)c2)c1 [Example 9, 5-methoxy-3′-({2-[(R)-2-oxo-3-(3-oxo-3,4-dihydro-2H-benzo[1,4]thiazin-6-yl)-oxazolidin-5-yl]-ethylamino}-methyl)-biphenyl-3-carbonitrile]",1,≤ 0.016,0.031,0.25,0.031,,,,,
"O=C1COc2ccc(N3C[C@H](CCNCc4cccc(-c5cccc(OC[C@@H]6C[C@@H](O)[C@@H](O)C6)n5)c4)OC3=O)nc2N1 (racemic) [Example 69, 6-[(S)-5-(2-{3-[6-((1rs,3R,4S)-3,4-dihydroxy-cyclopentylmethoxy)-pyridin-2-yl]-benzylamino}-ethyl)-2-oxo-oxazolidin-3-yl]-4H-pyrido[3,2-b][1,4]oxazin-3-one]",,,,,,8,0.063,0.25,1,1
"N#Cc1cccc(-c2cccc(CNCC[C@H]3CN(c4ccc5c(n4)NC(=O)CO5)C(=O)O3)c2)c1 [Example 40, 3′-({2-[(S)-2-oxo-3-(3-oxo-3,4-dihydro-2H-pyrido[3,2-b][1,4]oxazin-6-yl)-oxazolidin-5-yl]-ethylamino}-methyl)-biphenyl-3-carbonitrile]",2,≤ 0.016,0.125,0.25,0.125,,,,,
"COc1cccc(-c2cccc(CNCC[C@H]3CN(c4ccc5c(n4)NC(=O)CO5)C(=O)O3)c2)n1 [Example 41, 6-((S)-5-{2-[3-(6-methoxy-pyridin-2-yl)-benzylamino]-ethyl}-2-oxo-oxazolidin-3-yl)-4H-pyrido[3,2-b][1,4]oxazin-3-one]",1,≤ 0.016,0.063,0.25,0.063,,,,,
"N#Cc1cccc(-c2cccc(CNCC[C@@H]3CN(c4ccc5c(c4)NC(=O)CS5)C(=O)O3)c2)c1 [Example 5, 3′-({2-[(R)-2-oxo-3-(3-oxo-3,4-dihydro-2H-benzo[1,4]thiazin-6-yl)-oxazolidin-5-yl]-ethylamino}-methyl)-biphenyl-3-carbonitrile]",1,≤ 0.016,0.063,0.125,0.063,,,,,
"COc1ccc(C#N)c(-c2cccc(CNCCc3cn(-c4ccc5c(n4)NC(=O)CO5)c(=O)o3)c2)c1 [Example 37, 5-methoxy-3′-({2-[2-oxo-3-(3-oxo-3,4-dihydro-2H-pyrido[3,2-b][1,4]oxazin-6-yl)-2,3-dihydro-oxazol-5-yl]-ethylamino}-methyl)-biphenyl-2-carbonitrile]",1,≤ 0.016,0.063,0.25,0.063,,,,,
"COc1cccc(-c2cccc(CNCC[C@H]3CN(c4ccc5c(c4)NC(=O)CS5)C(=O)O3)c2)n1 [Example 43, 6-((S)-5-{2-[3-(6-methoxy-pyridin-2-yl)-benzylamino]-ethyl}-2-oxo-oxazolidin-3-yl)-4H-benzo[1,4]thiazin-3-one]",2,≤ 0.016,0.063,0.5,0.125,,,,,
"COc1cccc(-c2cccc(CNCC[C@@H]3CN(c4ccc5c(c4)NC(=O)CS5)C(=O)O3)c2)n1 [Example 15, 6-((R)-5-{2-[3-(6-methoxy-pyridin-2-yl)-benzylamino]-ethyl}-2-oxo-oxazolidin-3-yl)-4H-benzo[1,4]thiazin-3-one]",0.5,≤ 0.016,0.031,0.125,0.063,,,,,
"COc1cc(-c2cccc(CNCC[C@@H]3CN(c4ccc5c(c4)NC(=O)CS5)C(=O)O3)c2)nc(OC)n1 [Example 26, 6-((R)-5-{2-[3-(2,6-dimethoxy-pyrimidin-4-yl)-benzylamino]-ethyl}-2-oxo-oxazolidin-3-yl)-4H-benzo[1,4]thiazin-3-one]",4,0.063,0.25,2,0.5,,,,,

# The remaining lines, values ahead:
MIC [1] [µg/mL],MIC [2] [µg/mL],MIC [3] [µg/mL],MIC [4] [µg/mL],MIC [5] [µg/mL],"MIC for E. faecium A949 [1, 6] [µg/mL]","MIC for M. catarrhalis A894 [2, 6] [µg/mL]","MIC for S. aureus A798 [3, 6] [µg/mL]","MIC for A. baumannii T6474 [4, 6] [µg/mL]","MIC for S. aureus ATCC29213 [5, 6] [µg/mL]",SMILES
2,≤ 0.016,0.031,0.125,0.031,,,,,,"COc1cnnc(-c2cccc(CNCC[C@H]3CN(c4ccc5c(n4)NC(=O)CS5)C(=O)O3)c2)c1 [Example 99, 6-((S)-5-{2-[3-(5-methoxy-pyridazin-3-yl)-benzylamino]-ethyl}-2-oxo-oxazolidin-3-yl)-4H-pyrido[3,2-b][1,4]thiazin-3-one]"
4,≤ 0.016,0.5,0.5,0.5,,,,,,"N#Cc1cccc(-c2cccc(CNCC[C@H]3CN(c4ccc5c(c4)NC(=O)CO5)C(=O)O3)c2)c1 [Example 82, 3′-({2-[(S)-2-oxo-3-(3-oxo-3,4-dihydro-2H-benzo[1,4]oxazin-6-yl)-oxazolidin-5-yl]-ethylamino}-methyl)-biphenyl-3-carbonitrile]"
8,0.031,1,1,0.5,,,,,,"CNC(=O)COc1cccc(-c2cccc(CNCC[C@H]3CN(c4ccc5c(n4)NC(=O)CO5)C(=O)O3)c2)c1 [Example 78, N-methyl-2-[3′-({2-[(S)-2-oxo-3-(3-oxo-3,4-dihydro-2H-pyrido[3,2-b][1,4]oxazin-6-yl)-oxazolidin-5-yl]-ethylamino}-methyl)-biphenyl-3-yloxy]-acetamide]"
> 8,0.063,1,1,0.5,,,,,,"COc1cnnc(-c2cccc(CNCC[C@H]3CN(c4ccc5c(c4)NC(=O)CO5)C(=O)O3)c2)c1 [Example 81, 6-((S)-5-{2-[3-(5-methoxy-pyridazin-3-yl)-benzylamino]-ethyl}-2-oxo-oxazolidin-3-yl)-4H-benzo[1,4]oxazin-3-one]"
4,0.063,1,1,0.5,,,,,,"COc1cccc(-c2cncc(CNCC[C@@H]3CN(c4ccc5c(c4)NC(=O)CS5)C(=O)O3)c2)c1 [Example 72, 6-[(R)-5-(2-{[5-(3-methoxy-phenyl)-pyridin-3-ylmethyl]-amino}-ethyl)-2-oxo-oxazolidin-3-yl]-4H-benzo[1,4]thiazin-3-one]"
8,≤ 0.063,0.5,1,0.5,,,,,,"COc1cc(-c2cccc(CNCC[C@H]3CN(c4ccc5c(n4)NC(=O)CO5)C(=O)O3)c2)ccc1C#N [Example 75, 3-methoxy-3′-({2-[(S)-2-oxo-3-(3-oxo-3,4-dihydro-2H-pyrido[3,2-b][1,4]oxazin-6-yl)-oxazolidin-5-yl]-ethylamino}-methyl)-biphenyl-4-carbonitrile]"
4,≤ 0.016,0.25,0.25,0.125,,,,,,"N#Cc1cccc(-c2cccc(CNCC[C@H]3CN(c4ccc5c(c4)NC(=O)CO5)C(=O)O3)c2O)n1 [Example 88, 6-[2-hydroxy-3-({2-[(S)-2-oxo-3-(3-oxo-3,4-dihydro-2H-benzo[1,4]oxazin-6-yl)-oxazolidin-5-yl]-ethylamino}-methyl)-phenyl]-pyridine-2-carbonitrile]"
